Measurements reported in PMC6001238, “Iterative Chemical Engineering of Vancomycin Leads to Novel Vancomycin Analogs With a High in Vitro Therapeutic Index” (Frontiers in Microbiology, 2018).
≈ marks a conversion by molar mass, not a printed value.

Experiments:
[1] = tested on: human cervix carcinoma (HeLa) cells; assay: Cytostatic activity, HeLa cell proliferation; assay type: cell-based; conditions: mean ± SD of three experiments; highest concentration tested 250 µM; 4 days; read-out: Toxicity (IC50) HeLa
Experimental: (§1) Murine leukemia (L1210), human T-lymphocyte (CEM) and the human cervix carcinoma (HeLa) cell line were suspended at 300,000–500,000 cells/mL of culture medium, and 100 μL of a cell suspension was added to 100 μL of an appropriate dilution of the test compounds in wells of 96-well microtiter plates. After incubation at 37°C for 2 (L1210), 3 (CEM), or 4 (HeLa) days, the cell number was determined using a Coulter counter. The IC50 was defined per cell type as the compound concentration required to inhibit cell proliferation by 50% compared to the negative control ([Glowacka et al., 2017]).

[2] = tested on: MRSA KS6; assay: MIC, broth microdilution, MRSA KS6; assay type: cell-based, Staphylococcus aureus; conditions: for MIC-fold improvement vs. vancomycin: MRSA KS6, ratio of MIC of vancomycin and MIC of analogue; for MIC: Staphylococcus aureus MRSA KS6, read-out: MIC
Experimental: (§2) The minimum inhibitory concentration (MIC) was determined using the broth microdilution method according to the antimicrobial susceptibility testing standards of the clinical and laboratory standards institute ([Clinical and Laboratory Standards Institute [CLSI], 2012]). Ultrapure water and non-inoculated broth were used as controls. In one case, a final concentration of 10 μM vancomycin was included with the vancomycin analog or control antibiotic.

[3] = tested on: E. faecalis VRE 53; assay: MIC, broth microdilution, vancomycin-resistant E. faecalis VRE 53 (VanA); assay type: cell-based, Enterococcus faecalis; conditions: for MIC: Enterococcus faecalis VRE 53 (vancomycin-resistant), read-out: MIC; for MIC-fold improvement vs. vancomycin: VRE 53, ratio of MIC of vancomycin and MIC of analogue
Experimental: as §2

[4] = tested on: E. faecalis VRE 6; assay: MIC, broth microdilution, vancomycin-resistant E. faecalis VRE 6 (VanA); assay type: cell-based, Enterococcus faecalis; conditions: for MIC: Enterococcus faecalis VRE 6 (vancomycin-resistant), read-out: MIC; for MIC-fold improvement vs. vancomycin: VRE 6, ratio of MIC of vancomycin and MIC of analogue
Experimental: as §2

[5] = tested on: human T-lymphocyte (CEM) cells; assay: Cytostatic activity, CEM cell proliferation; assay type: cell-based; conditions: mean ± SD of three experiments; highest concentration tested 250 µM; 3 days; read-out: Toxicity (IC50) CEM
Experimental: as §1

[6] = tested on: E. faecalis VRE 29; assay: MIC, broth microdilution, vancomycin-resistant E. faecalis VRE 29 (VanA); assay type: cell-based, Enterococcus faecalis; conditions: for MIC: Enterococcus faecalis VRE 29 (vancomycin-resistant), read-out: MIC; for MIC-fold improvement vs. vancomycin: VRE 29, ratio of MIC of vancomycin and MIC of analogue
Experimental: as §2

[7] = tested on: MRSA KS89; assay: MIC, broth microdilution, MRSA KS89; assay type: cell-based, Staphylococcus aureus; conditions: for MIC-fold improvement vs. vancomycin: MRSA KS8, ratio of MIC of vancomycin and MIC of analogue; for MIC: Staphylococcus aureus MRSA KS8, read-out: MIC
Experimental: as §2

[8] = tested on: L1210, CEM and HeLa cell lines; assay: Cytostatic activity, average or summary over L1210, CEM and HeLa; assay type: cell-based; conditions: average of L1210, CEM and HeLa; read-out: Toxicity (IC50) Average
Experimental: as §1

[9] = tested on: E. faecalis VRE 37; assay: MIC, broth microdilution, vancomycin-resistant E. faecalis VRE 37 (VanA); assay type: cell-based, Enterococcus faecalis; conditions: for MIC: Enterococcus faecalis VRE 37 (vancomycin-resistant), read-out: MIC; for MIC-fold improvement vs. vancomycin: VRE 37, ratio of MIC of vancomycin and MIC of analogue
Experimental: as §2

[10] = tested on: MRSA KS2; assay: MIC, broth microdilution, MRSA KS2; assay type: cell-based, Staphylococcus aureus; conditions: for MIC-fold improvement vs. vancomycin: MRSA KS2, ratio of MIC of vancomycin and MIC of analogue; for MIC: Staphylococcus aureus MRSA KS2, read-out: MIC
Experimental: as §2

[11] = tested on: S. aureus VSSA (ATCC 6538); assay: MIC, broth microdilution, vancomycin-sensitive S. aureus (VSSA/MSSA, ATCC 6538); assay type: cell-based, Staphylococcus aureus; conditions: for MIC: Staphylococcus aureus VSSA, read-out: MIC; for MIC-fold improvement vs. vancomycin: VSSA, ratio of MIC of vancomycin and MIC of analogue
Experimental: as §2

[12] = tested on: S. aureus VRSA; assay: MIC, broth microdilution, vancomycin-resistant S. aureus (VRSA); assay type: cell-based, Staphylococcus aureus; conditions: for MIC: Staphylococcus aureus VRSA, read-out: MIC; for MIC-fold improvement vs. vancomycin: VRSA, ratio of MIC of vancomycin and MIC of analogue
Experimental: as §2

[13] = tested on: Murine leukemia (L1210) cells; assay: Cytostatic activity, L1210 cell proliferation; assay type: cell-based; conditions: mean ± SD of three experiments; highest concentration tested 250 µM; 2 days; read-out: Toxicity (IC50) L1210
Experimental: as §1

[14] = tested on: S. aureus VISA/HIP5827; assay: MIC, broth microdilution, vancomycin-intermediate S. aureus VISA HIP5827; assay type: cell-based, Staphylococcus aureus; conditions: for MIC: Staphylococcus aureus VISA/HIP5827, read-out: MIC; for MIC-fold improvement vs. vancomycin: VISA/HIP5827, ratio of MIC of vancomycin and MIC of analogue
Experimental: as §2

[15] = tested on: MRSA KS1; assay: MIC, broth microdilution, MRSA KS1; assay type: cell-based, Staphylococcus aureus; conditions: for MIC-fold improvement vs. vancomycin: MRSA KS1, ratio of MIC of vancomycin and MIC of analogue; for MIC: Staphylococcus aureus MRSA KS1, read-out: MIC
Experimental: as §2

[16] = tested on: E. faecalis VSE 1; assay: MIC, broth microdilution, vancomycin-sensitive E. faecalis (VSE 1); assay type: cell-based, Enterococcus faecalis; conditions: for MIC: Enterococcus faecalis VSE 1 (vancomycin-sensitive), read-out: MIC; for MIC-fold improvement vs. vancomycin: VSE 1, ratio of MIC of vancomycin and MIC of analogue
Experimental: as §2

| Compound | IC50 [1] [µM] | MIC [3] [µM] | MIC-fold improvement vs. vancomycin [3] | MIC [4] [µM] | MIC-fold improvement vs. vancomycin [4] | IC50 [5] [µM] | MIC [6] [µM] | MIC-fold improvement vs. vancomycin [6] | MIC-fold improvement vs. vancomycin [7] | MIC [7] [µM] | IC50 [8] [µM] | MIC [9] [µM] | MIC [11] [µM] | MIC-fold improvement vs. vancomycin [11] | MIC [12] [µM] | IC50 [13] [µM] | MIC [14] [µM] | MIC-fold improvement vs. vancomycin [14] | MIC [16] [µM] | MIC-fold improvement vs. vancomycin [16] | further results |
| --- | --- | --- | --- | --- | --- | --- | --- | --- | --- | --- | --- | --- | --- | --- | --- | --- | --- | --- | --- | --- | --- |
| CN[C@H](CC(C)C)C(=O)N[C@H]1C(=O)N[C@@H](CC(N)=O)C(=O)N[C@H]2C(=O)N[C@H]3C(=O)N[C@H](C(=O)N[C@H](C(=O)NCCNC(=O)/C=C/c4ccc(Cl)cc4)c4cc(O)cc(O)c4-c4cc3ccc4O)[C@H](O)c3ccc(c(Cl)c3)Oc3cc2cc(c3O[C@@H]2O[C@H](CO)[C@@H](O)[C@H](O)[C@H]2O[C@H]2C[C@](C)(N)[C@H](O)[C@H](C)O2)Oc2ccc(cc2Cl)[C@H]1O [Vanc-20] | 80 ± 3 | 12.5 (≈ 20.7 µg/mL) | 32 | 1.56 (≈ 2.58 µg/mL) | 128 | 146 ± 24 | 6.25 (≈ 10.3 µg/mL) | 64 | 2 | 0.39 (≈ 0.646 µg/mL) | 121 | 12.5 (≈ 20.7 µg/mL) | 0.39 (≈ 0.646 µg/mL) | 2 | 3.13 (≈ 5.18 µg/mL) | 138 ± 5 | 0.39 (≈ 0.646 µg/mL) | 16 | 0.39 (≈ 0.646 µg/mL) | 4 | MIC-fold improvement vs. vancomycin [2]: 2; MIC [2]: 0.39 µM (≈ 0.646 µg/mL); MIC-fold improvement vs. vancomycin [10]: 4; MIC [10]: 0.20 µM (≈ 0.331 µg/mL); MIC-fold improvement vs. vancomycin [12]: 32; MIC-fold improvement vs. vancomycin [15]: 2; MIC [15]: 0.39 µM (≈ 0.646 µg/mL) |
| CN[C@H](CC(C)C)C(=O)N[C@H]1C(=O)N[C@@H](CC(N)=O)C(=O)N[C@H]2C(=O)N[C@H]3C(=O)N[C@H](C(=O)N[C@H](C(=O)NCCNC(=O)/C=C/c4ccc(OC)cc4)c4cc(O)cc(O)c4-c4cc3ccc4O)[C@H](O)c3ccc(c(Cl)c3)Oc3cc2cc(c3O[C@@H]2O[C@H](CO)[C@@H](O)[C@H](O)[C@H]2O[C@H]2C[C@](C)(N)[C@H](O)[C@H](C)O2)Oc2ccc(cc2Cl)[C@H]1O [Vanc-36] | 89 ± 18 | 50 (≈ 82.6 µg/mL) | 8 | 1.56 (≈ 2.58 µg/mL) | 128 | > 250 | 12.5 (≈ 20.6 µg/mL) | 32 | 1 | 0.78 (≈ 1.29 µg/mL) | 196 | 12.5 (≈ 20.6 µg/mL) | 0.39 (≈ 0.644 µg/mL) | 2 | – | > 250 | 0.39 (≈ 0.644 µg/mL) | 16 | 0.39 (≈ 0.644 µg/mL) | 4 | MIC-fold improvement vs. vancomycin [2]: 2; MIC [2]: 0.39 µM (≈ 0.644 µg/mL); MIC-fold improvement vs. vancomycin [10]: 2; MIC [10]: 0.39 µM (≈ 0.644 µg/mL); MIC-fold improvement vs. vancomycin [15]: 1; MIC [15]: 0.78 µM (≈ 1.29 µg/mL) |
| CCCCCCCC[N+](C)(C)CCCNC(=O)c1ccc(NC(=O)CNC(=O)C2NC(=O)C3NC(=O)C(NC(=O)C4NC(=O)C(CC(N)=O)NC(=O)C(NC(=O)C(CC(C)C)NC)C(O)c5ccc(c(Cl)c5)Oc5cc4cc(c5OC4OC(CO)C(O)C(O)C4OC4CC(C)(N)C(O)C(C)O4)Oc4ccc(cc4Cl)C3O)c3ccc(O)c(c3)-c3c(O)cc(O)cc32)cc1 (stereo not drawn) [Vanc-81] | 122 ± 13 | 25 | 16 | ≤0.39 | >512 | > 250 | 25 | 16 | 4 | 0.20 | 179 | 25 | 0.39 | 2 | 0.78 | 164 ± 6 | 6.25 | 1 | 0.78 | 2 | MIC-fold improvement vs. vancomycin [9]: 16; MIC-fold improvement vs. vancomycin [12]: 128 |
| CNC(CC(C)C)C(=O)NC1C(=O)NC(CC(N)=O)C(=O)NC2C(=O)NC3C(=O)NC(C(=O)NC(C(=O)NCC(=O)Nc4ccc(C(=O)NCCCN(C)C)cc4)c4cc(O)cc(O)c4-c4cc3ccc4O)C(O)c3ccc(c(Cl)c3)Oc3cc2cc(c3OC2OC(CO)C(O)C(O)C2OC2CC(C)(N)C(O)C(C)O2)Oc2ccc(cc2Cl)C1O (stereo not drawn) [Vanc-82] | > 250 | 50 (≈ 85.5 µg/mL) | 8 | 6.25 (≈ 10.7 µg/mL) | 32 | > 250 | >50 | <8 | 1 | 0.78 (≈ 1.33 µg/mL) | > 250 | >50 | 1.56 (≈ 2.67 µg/mL) | 0.5 | 3.13 (≈ 5.35 µg/mL) | > 250 | >12.5 | <0.5 | 1.56 (≈ 2.67 µg/mL) | 1 | MIC-fold improvement vs. vancomycin [9]: <8; MIC-fold improvement vs. vancomycin [12]: 32 |
